Source: PubChem BioAssay AID1845201 (Molecular Pharmacology Branch, DTP, NCI, 2023)

System: COR L88 complex tumor spheroid viability
Experiment: Anticancer human tumor COR L88 cell line growth inhibition;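 also: compound exposure lasted 7 days before viability readout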;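 as to viability, T/C: percent of DMSO vehicle-treated spheroids = 100%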
Conditions: for IC50: curve of first compound; for viability, T/C: stronger effect = lower value
Summary of the method: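 Complex spheroids of malignant cells with endothelial cells and mesenchymal stem cells; agents alone or combined, from near clinical Cmax (or 10 microM if unknown) down in half-log steps, 0.25% DMSO final.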

Work on `Cn1ncnc1[C@H]1c2n[nH]c(=O)c3cc(F)cc(c23)N[C@@H]1c1ccc(F)cc1` + Cn1nnc2c(C(N)=O)ncn2c1=O yielded an IC50 (second compound 1 µM) of 205 nM, an IC50 (second compound 3.16 µM) of 124 nM and an IC50 (second compound 10 µM) of 57.7 nM. For the same compound, the IC50 (second compound 31.6 µM) was less than 9.49 nM, the IC50 (second compound 100 µM) was less than 9.49 nM and the viability, T/C (second compound 1 µM, first compound 0.00949 µM) was 79.6%. The viability, T/C (second compound 1 µM, first compound 0.03 µM) was 74%, the viability, T/C (second compound 1 µM, first compound 0.0949 µM) was 58.4% and the viability, T/C (second compound 1 µM, first compound 0.3 µM) was 45.8%. For the same compound, the viability, T/C (second compound 1 µM, first compound 0.949 µM) was 39.8%, the viability, T/C (second compound 1 µM, first compound 3 µM) was 36.3% and the viability, T/C (second compound 3.16 µM, first compound 0.00949 µM) was 79.4%. For the same compound, the viability, T/C (second compound 3.16 µM, first compound 0.03 µM) was 65.2%, the viability, T/C (second compound 3.16 µM, first compound 0.0949 µM) was 51.1% and the viability, T/C (second compound 3.16 µM, first compound 0.3 µM) was 45.3%. The viability, T/C (second compound 3.16 µM, first compound 0.949 µM) was 38.5%, the viability, T/C (second compound 3.16 µM, first compound 3 µM) was 39.1% and the viability, T/C (second compound 10 µM, first compound 0.00949 µM) was 58.6%. For the same compound, the viability, T/C (second compound 10 µM, first compound 0.03 µM) was 54.8%, the viability, T/C (second compound 10 µM, first compound 0.0949 µM) was 45.9% and the viability, T/C (second compound 10 µM, first compound 0.3 µM) was 43.1%. For the same compound, the viability, T/C (second compound 10 µM, first compound 0.949 µM) was 40.8%, the viability, T/C (second compound 10 µM, first compound 3 µM) was 36.3% and the viability, T/C (second compound 31.6 µM, first compound 0.00949 µM) was 50.2%. It also gave a viability, T/C (second compound 31.6 µM, first compound 0.03 µM) of 46.1%, a viability, T/C (second compound 31.6 µM, first compound 0.0949 µM) of 44.2% and a viability, T/C (second compound 31.6 µM, first compound 0.3 µM) of 39.4%. The viability, T/C (second compound 31.6 µM, first compound 0.949 µM) was 38.9%, the viability, T/C (second compound 31.6 µM, first compound 3 µM) was 30.1% and the viability, T/C (second compound 100 µM, first compound 0.00949 µM) was 44.4%. For the same compound, the viability, T/C (second compound 100 µM, first compound 0.03 µM) was 41.8%, the viability, T/C (second compound 100 µM, first compound 0.0949 µM) was 35.1% and the viability, T/C (second compound 100 µM, first compound 0.3 µM) was 35.1%. For the same compound, the viability, T/C (second compound 100 µM, first compound 0.949 µM) was 32.6% and the viability, T/C (second compound 100 µM, first compound 3 µM) was 33.3%.

Compound `Cc1cc(C)c(CNC(=O)c2cc(-c3ccc(CN4CCOCC4)cc3)cc3c2cnn3C2CCCC2)c(=O)[nH]1` + CC[C@@]1(O)C(=O)OCc2c1cc1n(c2=O)Cc2cc3c(CN(C)C)c(O)ccc3nc2-1 has an IC50 (second compound 0.003 µM) of 8330 nM, an IC50 (second compound 0.00949 µM) greater than 10000 nM and an IC50 (second compound 0.03 µM) of 252 nM. It also gave an IC50 (second compound 0.0949 µM) of 44.1 nM, an IC50 (second compound 0.3 µM) of less than 31.6 nM and a viability, T/C (second compound 0.003 µM, first compound 0.0316 µM) of 87%. For the same compound, the viability, T/C (second compound 0.003 µM, first compound 0.1 µM) was 91.7%, the viability, T/C (second compound 0.003 µM, first compound 0.316 µM) was 90.4% and the viability, T/C (second compound 0.003 µM, first compound 1 µM) was 80.8%. The viability, T/C (second compound 0.003 µM, first compound 3.16 µM) was 73.1%, the viability, T/C (second compound 0.003 µM, first compound 10 µM) was 45.5% and the viability, T/C (second compound 0.00949 µM, first compound 0.0316 µM) was 76.9%. For the same compound, the viability, T/C (second compound 0.00949 µM, first compound 0.1 µM) was 81.5%, the viability, T/C (second compound 0.00949 µM, first compound 0.316 µM) was 83.8% and the viability, T/C (second compound 0.00949 µM, first compound 1 µM) was 73%. For the same compound, the viability, T/C (second compound 0.00949 µM, first compound 3.16 µM) was 60.3%, the viability, T/C (second compound 0.00949 µM, first compound 10 µM) was 54.4% and the viability, T/C (second compound 0.03 µM, first compound 0.0316 µM) was 52.4%. For the same compound, the viability, T/C (second compound 0.03 µM, first compound 0.1 µM) was 56.2%, the viability, T/C (second compound 0.03 µM, first compound 0.316 µM) was 47.1% and the viability, T/C (second compound 0.03 µM, first compound 1 µM) was 46.3%. The viability, T/C (second compound 0.03 µM, first compound 3.16 µM) was 43%, the viability, T/C (second compound 0.03 µM, first compound 10 µM) was 39.2% and the viability, T/C (second compound 0.0949 µM, first compound 0.0316 µM) was 51.7%. It also gave a viability, T/C (second compound 0.0949 µM, first compound 0.1 µM) of 48.2%, a viability, T/C (second compound 0.0949 µM, first compound 0.316 µM) of 45.1% and a viability, T/C (second compound 0.0949 µM, first compound 1 µM) of 45.9%. The viability, T/C (second compound 0.0949 µM, first compound 3.16 µM) was 40.5%, the viability, T/C (second compound 0.0949 µM, first compound 10 µM) was 41.7% and the viability, T/C (second compound 0.3 µM, first compound 0.0316 µM) was 40.5%. The viability, T/C (second compound 0.3 µM, first compound 0.1 µM) was 38.4%, the viability, T/C (second compound 0.3 µM, first compound 0.316 µM) was 39% and the viability, T/C (second compound 0.3 µM, first compound 1 µM) was 38.1%. For the same compound, the viability, T/C (second compound 0.3 µM, first compound 3.16 µM) was 35.8% and the viability, T/C (second compound 0.3 µM, first compound 10 µM) was 30.4%.
